# Laboratory results: US12715915B2, “Gout flare prevention methods using IL-1β blockers” (priority 2022, dated 2026)
# Entries after “also recorded” stand apart in the source; their conditions may differ. Read-outs that look alike come from different tables or passages of the source.
# Key:
# [1] = system: adult uncontrolled gout patients; assay: MIRROR-C: open-label trial of canakinumab prophylaxis to prevent gout flares when initiating pegloticase+MTX; format: in vivo, human
# From the text: 86. Pegloticase plus methotrexate (approved by FDA in July 2022) is effective at reducing signs/symptoms of uncontrolled gout. In the pivotal trial (MIRROR RCT) the most common adverse event was gout flares which occurred in 54% of patients at month 1 on combination pegloticase and methotrexate. The purpose of this study is to determine if canakinumab is effective for the prevention of gout flares in subjects scheduled to begin KRYSTEXXA® (KRY) (pegloticase) infusions in combination with methotrexate. The most common adverse event that occurs in patients being treated with KRY and methotrexate are gout flares which occurred in 54% of patients at month 1 in the MIRROR RCT. Herein we use canakinumab pretreatment (without corticosteroids, NSAIDs, or colchicine) to reduce the number of gout flares.
# 87 Canakinumab is the drug that is tested herein. It is currently approved by the FDA for the treatment of periodic fever syndromes and active systemic juvenile idiopathic arthritis (SJIA). However, Canakinumab is considered to be experimental in this study. Subjects scheduled (by their treating provider) to receive pegloticase (with methotrexate) receive a single 150 mg injection of subcutaneous canakinumab one week prior to the first scheduled pegloticase infusion. The combination of the drugs is experimental. As shown herein,
# 88. Subjects scheduled (by their treating provider) to receive pegloticase (with methotrexate) receive a single 150 mg injection of subcutaneous canakinumab one week prior to the first scheduled pegloticase infusion. At each infusion, subjects are assessed for gout flares. Canakinumab are provided by the study to subjects without charge. Pegloticase, methotrexate, and other medications are obtained through standard means (patient insurance, patient assistance, etc.) as ordered by treating provider. […] It is assumed that mobilization of gout crystals at the initiation of therapy results in gout flares through the IL-1 inflammasome pathway. A goal of prophylaxis is to reduce the number of flares with initiation. […]
# 89. […] On the day of KRYSTEXXA® administration (i.e., Day 0), the blood pressure, respiratory rate, temperature, and heart rate of patients are measured and patients receive a first administration of KRYSTEXXA® delivered as an intravenous (i.v.) infusion. Every two weeks thereafter during the study (i.e., Day 14, Day 28, Day 42, Day […], Day 98, Day 112, Day 126, Day 140, Day 154, Day 168; also called Week 2, Week 4, Week 6, Week 8, Week 10, Week 12, Week 14, Week 16, Week 18, Week 20, Week 22, Week 24) the blood pressure, respiratory rate, temperature, and heart rate of patients are measured and patients report any gout flares. […]
# [2] = system: gout patients initiating allopurinol; conditions: cited from earlier work; for risk of gout flares during allopurinol initiation: in vivo
# human IL1β = human IL1β (Homo sapiens, UniProt P01584); conditions: blocks interaction with IL-1 receptors; cited from earlier work
# IL-1α = molecular target: T1, IL-1α (Homo sapiens, UniProt P01583); conditions: cited from earlier work
# T1 sequence (P01583 113-271): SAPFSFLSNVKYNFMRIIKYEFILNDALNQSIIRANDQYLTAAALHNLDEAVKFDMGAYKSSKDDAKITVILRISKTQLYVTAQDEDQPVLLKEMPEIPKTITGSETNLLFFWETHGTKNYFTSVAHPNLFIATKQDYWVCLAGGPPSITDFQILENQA
# [3] = molecular target: IL-1 receptor antagonist (IL-1ra) (Homo sapiens, UniProt P18510); conditions: cited from earlier work
# IL-1 receptor antagonist (IL-1ra), sequence (P18510 26-177): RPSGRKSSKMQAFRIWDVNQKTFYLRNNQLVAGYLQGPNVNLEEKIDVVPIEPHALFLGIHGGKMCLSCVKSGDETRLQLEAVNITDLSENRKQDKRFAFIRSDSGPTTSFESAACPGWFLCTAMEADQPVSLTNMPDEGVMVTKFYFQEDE
substance,measurement,setting,value
canakinumab,time to resolution of active gout flares after administration,[1]; canakinumab 150 mg s.c.,≤ 48 h
same,treated patients in whom gout flares were prevented,"[1]; canakinumab prophylaxis without corticosteroids, initiation of pegloticase with methotrexate",100%
same,safety of canakinumab prophylaxis with pegloticase+MTX,"[1]; single 150 mg dose, without CS",no new safety signals; also recorded: did not compromise efficacy or safety
same,new gout flares after canakinumab prophylaxis,"[1]; single 150 mg s.c. dose 7 days before first pegloticase infusion, no CS, NSAIDs or colchicine, assessed every 2 wks for 6 mos",No new gout flares; also recorded: prevented gout flares in all patients
same,risk of gout flares during allopurinol initiation,[2],reduces the risk of flares
same,risk of gout flares during allopurinol initiation,[2]; listed as Canakinumab,can reduce subsequent flares
same,prophylaxis against flares compared to colchicine,"[2]; single dose ≥50 mg, initiating allopurinol",superior prophylaxis
same,binding to human IL1β,human IL1β,binds to human IL1β and neutralizes its activity
same,binding to IL-1α,IL-1α,does not bind
same,binding to IL-1 receptor antagonist (IL-1ra),[3],does not bind
